Test results from ChEMBL document CHEMBL2311454, “Discovery and evaluation of novel inhibitors of mycobacterium protein tyrosine phosphatase B from the 6-Hydroxy-benzofuran-5-carboxylic acid scaffold” (J Med Chem, 2013).

Columns and labels:
[1] = biological target: T1, Tyrosine-protein phosphatase non-receptor type 22 (Homo sapiens, UniProt Q9Y2R2); experiment: Inhibition of LYP (unknown origin) expressed in Escherichia coli using pNPP substrate after 5 mins by spectrophotometric analysis
T1 sequence (Q9Y2R2 whole entry): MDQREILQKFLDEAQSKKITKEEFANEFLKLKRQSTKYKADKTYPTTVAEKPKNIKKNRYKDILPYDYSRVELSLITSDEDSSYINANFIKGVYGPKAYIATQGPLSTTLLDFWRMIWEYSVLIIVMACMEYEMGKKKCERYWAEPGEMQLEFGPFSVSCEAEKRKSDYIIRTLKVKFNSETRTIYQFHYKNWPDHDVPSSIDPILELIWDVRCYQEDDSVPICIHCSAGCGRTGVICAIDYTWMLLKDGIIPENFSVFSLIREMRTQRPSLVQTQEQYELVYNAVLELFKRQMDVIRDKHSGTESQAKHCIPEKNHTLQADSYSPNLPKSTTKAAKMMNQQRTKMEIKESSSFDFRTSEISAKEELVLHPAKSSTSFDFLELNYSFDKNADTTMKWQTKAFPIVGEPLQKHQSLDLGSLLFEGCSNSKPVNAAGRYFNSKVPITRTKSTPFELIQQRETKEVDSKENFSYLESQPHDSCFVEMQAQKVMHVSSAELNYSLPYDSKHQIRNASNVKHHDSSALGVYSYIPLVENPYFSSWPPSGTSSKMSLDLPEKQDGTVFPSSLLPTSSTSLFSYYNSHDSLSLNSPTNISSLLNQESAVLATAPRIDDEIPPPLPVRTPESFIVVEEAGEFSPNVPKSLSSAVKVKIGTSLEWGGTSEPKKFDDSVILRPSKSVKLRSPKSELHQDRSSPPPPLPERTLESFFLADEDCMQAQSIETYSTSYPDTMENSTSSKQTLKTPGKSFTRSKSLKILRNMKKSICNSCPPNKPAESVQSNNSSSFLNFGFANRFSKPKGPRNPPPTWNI

[2] = biological target: T2, Tyrosine-protein phosphatase non-receptor type 11 (Homo sapiens, UniProt Q06124); experiment: Inhibition of SHP2 (unknown origin) expressed in Escherichia coli using pNPP substrate after 5 mins by spectrophotometric analysis
T2 sequence (Q06124 whole entry): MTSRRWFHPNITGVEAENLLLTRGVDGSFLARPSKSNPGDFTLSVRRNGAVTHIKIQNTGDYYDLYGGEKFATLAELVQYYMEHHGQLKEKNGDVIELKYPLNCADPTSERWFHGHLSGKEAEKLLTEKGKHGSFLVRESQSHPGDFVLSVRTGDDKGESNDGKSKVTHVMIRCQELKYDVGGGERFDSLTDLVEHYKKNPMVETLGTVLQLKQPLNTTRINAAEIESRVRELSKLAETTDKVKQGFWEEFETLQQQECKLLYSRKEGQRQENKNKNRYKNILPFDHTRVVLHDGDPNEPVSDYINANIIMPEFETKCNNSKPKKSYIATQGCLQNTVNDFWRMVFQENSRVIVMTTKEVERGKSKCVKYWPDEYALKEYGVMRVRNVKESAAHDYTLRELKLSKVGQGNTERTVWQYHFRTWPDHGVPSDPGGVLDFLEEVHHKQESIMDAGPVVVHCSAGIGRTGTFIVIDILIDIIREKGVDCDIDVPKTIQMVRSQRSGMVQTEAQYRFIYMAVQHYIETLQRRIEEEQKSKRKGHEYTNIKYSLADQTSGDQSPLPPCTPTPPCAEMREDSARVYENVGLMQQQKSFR

[3] = biological target: T3, Tyrosine-protein phosphatase non-receptor type 2 (Homo sapiens, UniProt P17706); experiment: Inhibition of TCPTP (unknown origin) expressed in Escherichia coli using pNPP substrate after 5 mins by spectrophotometric analysis
T3 sequence (P17706 whole entry): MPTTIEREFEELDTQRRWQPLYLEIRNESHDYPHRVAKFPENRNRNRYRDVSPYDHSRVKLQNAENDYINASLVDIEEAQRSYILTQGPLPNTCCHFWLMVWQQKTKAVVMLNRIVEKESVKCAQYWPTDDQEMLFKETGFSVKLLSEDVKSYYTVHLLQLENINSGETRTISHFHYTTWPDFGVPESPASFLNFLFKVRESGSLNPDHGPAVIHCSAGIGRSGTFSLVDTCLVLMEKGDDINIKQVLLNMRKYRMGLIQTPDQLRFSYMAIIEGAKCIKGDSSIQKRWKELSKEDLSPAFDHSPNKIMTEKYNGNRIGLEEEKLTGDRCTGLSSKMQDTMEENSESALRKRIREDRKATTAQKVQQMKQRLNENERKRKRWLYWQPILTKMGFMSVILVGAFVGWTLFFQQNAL

[4] = biological target: Dual specificity protein phosphatase 3 (Homo sapiens, UniProt P51452); experiment: Inhibition of VHR (unknown origin) expressed in Escherichia coli using pNPP substrate after 5 mins by spectrophotometric analysis
[5] = biological target: T4, Tyrosine-protein phosphatase non-receptor type 9 (Homo sapiens, UniProt P43378); experiment: Inhibition of PTPMEG2 (unknown origin) expressed in Escherichia coli using pNPP substrate after 5 mins by spectrophotometric analysis
T4 sequence (P43378 whole entry): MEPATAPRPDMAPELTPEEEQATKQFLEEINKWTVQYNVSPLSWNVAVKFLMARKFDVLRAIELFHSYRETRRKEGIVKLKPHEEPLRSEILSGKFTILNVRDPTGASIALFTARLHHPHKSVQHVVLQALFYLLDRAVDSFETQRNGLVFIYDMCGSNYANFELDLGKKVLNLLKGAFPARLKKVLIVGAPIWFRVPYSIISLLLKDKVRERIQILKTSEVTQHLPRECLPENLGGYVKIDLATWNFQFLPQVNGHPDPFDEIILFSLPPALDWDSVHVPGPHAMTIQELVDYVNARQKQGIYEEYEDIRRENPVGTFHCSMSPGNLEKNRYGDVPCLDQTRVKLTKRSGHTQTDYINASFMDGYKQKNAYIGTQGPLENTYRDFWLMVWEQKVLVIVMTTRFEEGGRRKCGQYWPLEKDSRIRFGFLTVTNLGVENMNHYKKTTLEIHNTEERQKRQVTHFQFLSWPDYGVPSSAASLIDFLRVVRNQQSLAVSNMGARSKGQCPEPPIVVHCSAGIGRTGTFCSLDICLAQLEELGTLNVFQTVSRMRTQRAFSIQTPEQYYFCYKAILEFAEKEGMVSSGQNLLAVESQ

Sequence of Dual specificity protein phosphatase 3 (P51452 whole entry): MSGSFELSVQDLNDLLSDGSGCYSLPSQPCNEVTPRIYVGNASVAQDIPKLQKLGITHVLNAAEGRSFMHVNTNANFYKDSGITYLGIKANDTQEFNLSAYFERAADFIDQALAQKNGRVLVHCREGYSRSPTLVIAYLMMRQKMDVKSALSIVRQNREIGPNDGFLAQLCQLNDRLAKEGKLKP

SMILES | IC50 [1] [µM] | IC50 [2] [µM] | IC50 [3] [µM] | IC50 [4] [µM] | IC50 [5] [µM]
C[C@]12CCC(=O)C=C1CC[C@@H]1[C@@H]2CC[C@@]2(C)[C@H]1CC[C@]2(O)C#Cc1c(-c2ccccc2)oc2cc(O)c(C(=O)O)cc12 | 12.2 | 30 | > 50 | > 100 | > 100
O=C(O)c1cc2c(CCc3ccc(OC(F)(F)F)cc3)c(-c3ccccc3)oc2cc1O | 4.1 | – | 8.9 | 6.7 | 8.4
C#Cc1c(-c2ccccc2)oc2cc(O)c(C(=O)O)cc12 | 50 | 31 | > 50 | > 50 | 85
O=C(O)c1cc2c(C#CCO)c(-c3ccccc3)oc2cc1O | > 100 | > 100 | > 100 | > 100 | > 100
O=C(O)c1cc2c(CCc3ccc(Oc4ccccc4)cc3)c(-c3ccccc3)oc2cc1O | 2.2 | 3.6 | 11.8 | 6.3 | 7.7
O=C(O)c1cc2c(CCc3cccc(C(F)(F)F)c3)c(-c3ccccc3)oc2cc1O | 3.5 | 4.5 | 10 | 6.2 | 8.6
O=C(O)c1cc2c(CCc3cccc(F)c3)c(-c3ccccc3)oc2cc1O | 12.4 | 10.9 | 33 | 22 | 110
O=C(O)c1cc2c(/C=C\c3cc(F)cc(F)c3)c(-c3ccccc3)oc2cc1O | 3.7 | 5 | 9.5 | 8.6 | 9.2
